The source of these data is ChEMBL document CHEMBL1128645, “Synthesis and antiviral activity of phosphonate derivatives of enantiomeric dihydro-2H-pyranyl nucleosides” (Bioorg Med Chem Lett, 1995).

Data set [1] deals with Human immunodeficiency virus 2. Kind of data set: Antiviral activity against human immunodeficiency virus(HIV-2); no activity. The class given is functional, organism-based.
Another data set has as its system Cytomegalovirus. The data set can be described thus: Antiviral activity against cytomegalovirus (CMV); no activity. It counts as functional, organism-based.
The test system of another data set is Human alphaherpesvirus 1. The data set can be described thus: Antiviral activity against herpes simplex virus (HSV-1); no activity. The class given is functional, organism-based.
The subject of data set [2] is Human immunodeficiency virus 1. Kind of data set: Antiviral activity against human immunodeficiency virus(HIV-1); no activity. The class given is functional, organism-based.
The next data set relates to Human alphaherpesvirus 3. The data set can be described thus: Antiviral activity against Varicella-Zoster virus (VZV); no activity. It counts as functional, organism-based.
Another data set has as its system Human alphaherpesvirus 2. The data set can be described thus: Antiviral activity against herpes simplex virus (HSV-2); no activity. It counts as functional, organism-based.
A short description of data set [3]: Half life at pH 3. It counts as ADME. Particulars: buffer.

The source made the active and inactive calls. No cut-off for these calls is given here.

In the case of `Nc1nc(O)c2ncn([C@H]3C=C[C@@H](OCP(=O)(O)O)OC3)c2n1`, the outcome (in data set [1]; with Cytomegalovirus; in the data set on Human alphaherpesvirus 1; in data set [2]; in the data set on Human alphaherpesvirus 3; with Human alphaherpesvirus 2) was inactive.
With `Nc1nc(O)c2ncn([C@@H]3C=C[C@H](OCP(=O)(O)O)OC3)c2n1`, the result (in data set [1]; in the data set with Cytomegalovirus; in the data set with Human alphaherpesvirus 1; in data set [2]; in the data set on Human alphaherpesvirus 3; in the data set on Human alphaherpesvirus 2) was inactive.
`Nc1nc(O)c2ncn([C@H]3C=C[C@@H](OCP(=O)(O)O)CO3)c2n1` gave a half-life in data set [3] of 5 h.
